Here are results for 38 compounds from patent US9957271B2, “Substituted bicyclic aza-heterocycles and analogues as sirtuin modulators” (GlaxoSmithKline, LLC, priority 2012, dated 2018).

Where only a bound is given, the exact number is not on record here.

For the experiment, the target named is T1, SIRT1 (Homo sapiens, UniProt Q96EB6).
T1 sequence (Q96EB6 1-747): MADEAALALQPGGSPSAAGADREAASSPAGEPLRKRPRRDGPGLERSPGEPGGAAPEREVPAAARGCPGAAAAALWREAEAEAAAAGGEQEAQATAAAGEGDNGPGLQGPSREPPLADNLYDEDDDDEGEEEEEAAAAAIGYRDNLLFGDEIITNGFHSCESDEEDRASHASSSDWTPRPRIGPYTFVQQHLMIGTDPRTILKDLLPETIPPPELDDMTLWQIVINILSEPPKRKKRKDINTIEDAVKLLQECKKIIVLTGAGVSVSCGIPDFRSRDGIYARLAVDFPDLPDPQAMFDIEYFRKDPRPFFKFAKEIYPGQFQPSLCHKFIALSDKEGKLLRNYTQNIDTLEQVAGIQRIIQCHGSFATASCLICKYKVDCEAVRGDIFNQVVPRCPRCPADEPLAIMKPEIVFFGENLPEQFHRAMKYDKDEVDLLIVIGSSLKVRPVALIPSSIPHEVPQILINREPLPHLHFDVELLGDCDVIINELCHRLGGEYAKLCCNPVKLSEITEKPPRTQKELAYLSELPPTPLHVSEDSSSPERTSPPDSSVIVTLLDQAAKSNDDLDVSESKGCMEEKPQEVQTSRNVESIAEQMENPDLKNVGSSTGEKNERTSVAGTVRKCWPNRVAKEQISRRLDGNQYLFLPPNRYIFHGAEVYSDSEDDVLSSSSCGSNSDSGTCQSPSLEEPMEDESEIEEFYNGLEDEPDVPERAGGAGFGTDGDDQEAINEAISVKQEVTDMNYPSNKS
The experiment in a line: TAMRA based mass spectrometry assay of SIRT1 activity. Format: biochemical. The conditions noted are these: TAMRA assay; for TAMRA EC1.5 (μM): concentration giving 150% activation of SIRT1; for Emax: percent maximum fold activation, read-out: TAMRA % Fold Act. In short, it runs like this: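 Deacetylation of a biotinylated, TAMRA-tagged p53-based peptide (0.5 μM) by 10 nM His-tagged SIRT1 with 120 μM βNAD+, 25 °C for 25 min, pH 8 Tris-acetate buffer, across a compound concentration range. Quenched by formic acid and read by mass spec as product peptide or OAADPR; activity relative to DMSO reactions, nicotinamide defining maximal inhibition.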

For the compound `CCOc1cc(NC(=O)c2cnn3ccc(-c4ccccc4C(F)(F)F)nc23)ccn1` [Compound 643], the “TAMRA EC1.5 (μM)” value is “A (EC1.5<1 μM)” and the Emax is not below 350%.

Turning to `Cc1cc(-c2ccccc2C(F)(F)F)nn2c(C(=O)Nc3cc(N4CCCC4)ncn3)cnc12` [Compound 646], the “TAMRA EC1.5 (μM)” value was “A (EC1.5<1 μM)” and the Emax was not below 350%.

`Cc1cc(NC(=O)c2c(C)nn3ccc(-c4ccccc4C(F)(F)F)nc23)cc(C)n1` [Compound 648]: the “TAMRA EC1.5 (μM)” value is “A (EC1.5<1 μM)” and the Emax was not below 350%.

Take `Cc1ccncc1NC(=O)c1c(C)nn2ccc(-c3ccccc3C(F)(F)F)nc12` [Compound 649]: the “TAMRA EC1.5 (μM)” value is “A (EC1.5<1 μM)” and the Emax was less than 350%.

Regarding `Cc1nc(NC(=O)c2c(C)nn3ccc(-c4ccccc4C(F)(F)F)nc23)sc1C` [Compound 651], the “TAMRA EC1.5 (μM)” value was “A (EC1.5<1 μM)” and the Emax was not below 350%.

As for `Cc1cnc(NC(=O)c2c(C)nn3ccc(-c4ccccc4C(F)(F)F)nc23)s1` [Compound 652], the “TAMRA EC1.5 (μM)” value is on record as “A (EC1.5<1 μM)” and the Emax was not below 350%.

Turning to `Cc1ccc(NC(=O)c2cnn3ccc(-c4ccccc4C(F)(F)F)nc23)nn1` [Compound 655], the “TAMRA EC1.5 (μM)” value is on record as “A (EC1.5<1 μM)” and the Emax was not below 350%.

For the compound `CCOc1ccc(NC(=O)c2cnn3ccc(-c4ccccc4C(F)(F)F)nc23)nn1` [Compound 658], the “TAMRA EC1.5 (μM)” value was “A (EC1.5<1 μM)” and the Emax is not below 350%.

As to `O=C(Nc1cncc(F)c1)c1cnn2ccc(-c3ccccc3OC(F)(F)F)nc12` [Compound 660], the “TAMRA EC1.5 (μM)” value is given as “A (EC1.5<1 μM)” and the Emax was not below 350%.

As to `Cc1cc(C)c(NC(=O)c2cnn3ccc(-c4ccccc4OC(F)(F)F)nc23)cn1` [Compound 661], the “TAMRA EC1.5 (μM)” value is reported as “B (EC1.5 1-25 μM)” and the Emax is less than 350%.

`COCCOc1cc(NC(=O)c2cnc3c(C)cc(-c4ccccc4C(F)(F)F)nn23)ncn1` [Compound 662]: the “TAMRA EC1.5 (μM)” value is recorded as “A (EC1.5<1 μM)” and the Emax was less than 350%.

Turning to `Cc1ccc(NC(=O)c2c(C)nc3ccc(-c4ccccc4C(F)(F)F)nn23)nn1` [Compound 664], the “TAMRA EC1.5 (μM)” value is on record as “A (EC1.5<1 μM)” and the Emax was not below 350%.

For `CCOc1ccc(NC(=O)c2c(C)nc3ccc(-c4ccccc4C(F)(F)F)nn23)nn1` [Compound 666], the “TAMRA EC1.5 (μM)” value is “A (EC1.5<1 μM)” and the Emax was not below 350%.

`Cc1nc2ccc(-c3ccccc3C(F)(F)F)nn2c1C(=O)Nc1cnncn1` [Compound 667]: the “TAMRA EC1.5 (μM)” value is given as “A (EC1.5<1 μM)” and the Emax was not below 350%.

For `Cc1nc2ccc(-c3ccccc3C(F)(F)F)nn2c1C(=O)Nc1nccc(N2CCCC2)n1` [Compound 669], the “TAMRA EC1.5 (μM)” value is “A (EC1.5<1 μM)” and the Emax is not below 350%.

In the case of `COc1cncnc1NC(=O)c1c(C)nc2ccc(-c3ccccc3C(F)(F)F)nn12` [Compound 670], the “TAMRA EC1.5 (μM)” value is recorded as “A (EC1.5<1 μM)” and the Emax is not below 350%.

Take `Cc1nc2ccc(-c3ccccc3C(F)(F)F)nn2c1C(=O)Nc1ccc(Cl)cn1` [Compound 673]: the “TAMRA EC1.5 (μM)” value is recorded as “A (EC1.5<1 μM)” and the Emax is not below 350%.

Regarding `Cc1nc2ccc(-c3ccccc3C(F)(F)F)nn2c1C(=O)Nc1ccnn1C` [Compound 675], the “TAMRA EC1.5 (μM)” value was “C (EC1.5>25 μM)” and the Emax is less than 350%.

On to `CCOc1n[nH]c(NC(=O)c2c(C)nc3ccc(-c4ccccc4C(F)(F)F)nn23)n1` [Compound 676], for which the “TAMRA EC1.5 (μM)” value is “A (EC1.5<1 μM)” and the Emax is not below 350%.

On to `Cc1ccc(NC(=O)c2c(C)nn3ccc(-c4ccccc4C(F)(F)F)nc23)nc1` [Compound 684], for which the “TAMRA EC1.5 (μM)” value was “A (EC1.5<1 μM)” and the Emax is not below 350%.

For the compound `Cc1cc(C)nc(NC(=O)c2c(C)nn3ccc(-c4ccccc4C(F)(F)F)nc23)c1` [Compound 685], the “TAMRA EC1.5 (μM)” value is “A (EC1.5<1 μM)” and the Emax was not below 350%.

For `Cc1cc(C)c(NC(=O)c2cnn3ccc(-c4ccccc4C(F)(F)F)nc23)cn1` [Compound 687], the “TAMRA EC1.5 (μM)” value is on record as “B (EC1.5 1-25 μM)” and the Emax is less than 350%.

For `Cc1cnc(NC(=O)c2cnn3ccc(-c4ccccc4OC(F)(F)F)nc23)c(C)n1` [Compound 689], the “TAMRA EC1.5 (μM)” value was “C (EC1.5>25 μM)” and the Emax is less than 350%.

As for `O=C(Nc1ncc(F)cc1F)c1cnn2ccc(-c3ccccc3OC(F)(F)F)nc12` [Compound 690], the “TAMRA EC1.5 (μM)” value was “C (EC1.5>25 μM)” and the Emax was less than 350%.

For `Cc1cc(-c2ccccc2C(F)(F)F)nn2c(C(=O)Nc3ccnc(N4CC5(CCS5(=O)=O)C4)n3)cnc12` [Compound 691], the “TAMRA EC1.5 (μM)” value was “A (EC1.5<1 μM)” and the Emax is not below 350%.

For the compound `COc1ccc(NC(=O)c2c(C)nn3ccc(-c4ccccc4C(F)(F)F)nc23)nn1` [Compound 696], the “TAMRA EC1.5 (μM)” value was “A (EC1.5<1 μM)” and the Emax was not below 350%.

`CCOc1ccc(NC(=O)c2c(C)nn3ccc(-c4ccccc4C(F)(F)F)nc23)nn1` [Compound 697]: the “TAMRA EC1.5 (μM)” value is reported as “A (EC1.5<1 μM)” and the Emax is not below 350%.

`Cc1ncccc1NC(=O)c1c(C)nn2ccc(-c3ccccc3C(F)(F)F)nc12` [Compound 699]: the “TAMRA EC1.5 (μM)” value is listed as “A (EC1.5<1 μM)” and the Emax is less than 350%.

For `Cc1csc(NC(=O)c2cnn3ccc(-c4ccccc4OC(F)(F)F)nc23)n1` [Compound 702], the “TAMRA EC1.5 (μM)” value is on record as “A (EC1.5<1 μM)” and the Emax is not below 350%.

`COc1cc(NC(=O)c2cnn3ccc(-c4ccccc4OC(F)(F)F)nc23)ncn1` [Compound 703]: the “TAMRA EC1.5 (μM)” value was “A (EC1.5<1 μM)” and the Emax was not below 350%.

In the case of `O=C(Nc1cnc2ccc(-c3ccccc3C(F)(F)F)nn12)c1cc(O)ncn1` [Compound 705], the “TAMRA EC1.5 (μM)” value is reported as “A (EC1.5<1 μM)” and the Emax was not below 350%.

With `Cc1cc(C)c(NC(=O)c2c(C)nn3ccc(-c4ccccc4C(F)(F)F)nc23)cn1` [Compound 708], the “TAMRA EC1.5 (μM)” value is recorded as “B (EC1.5 1-25 μM)” and the Emax was not below 350%.

On to `Cc1nn2ccc(-c3ccccc3C(F)(F)F)nc2c1C(=O)Nc1nccs1` [Compound 709], for which the “TAMRA EC1.5 (μM)” value is recorded as “A (EC1.5<1 μM)” and the Emax was not below 350%.

Take `O=C(Nc1cc(O)ncn1)c1cnn2ccc(-c3ccccc3OC(F)(F)F)nc12` [Compound 711]: the “TAMRA EC1.5 (μM)” value is listed as “A (EC1.5<1 μM)” and the Emax is not below 350%.

As to `Cc1ccnc(C(=O)Nc2cnn3ccc(-c4ccccc4OC(F)(F)F)nc23)c1` [Compound 714], the “TAMRA EC1.5 (μM)” value is recorded as “A (EC1.5<1 μM)” and the Emax was not below 350%.

Regarding `Cc1nc2ccc(-c3ccccc3Cl)nn2c1C(=O)Nc1cccnn1` [Compound 715], the “TAMRA EC1.5 (μM)” value is recorded as “B (EC1.5 1-25 μM)” and the Emax was not below 350%.

For the compound `COc1ccc(NC(=O)c2c(C)nc3ccc(-c4ccccc4C)nn23)nn1` [Compound 720], the “TAMRA EC1.5 (μM)” value was “B (EC1.5 1-25 μM)” and the Emax was not below 350%.

As for `CCOc1ccc(NC(=O)c2c(C)nc3ccc(-c4ccccc4C)nn23)nn1` [Compound 721], the “TAMRA EC1.5 (μM)” value is reported as “B (EC1.5 1-25 μM)” and the Emax was less than 350%.
